# PubChem BioAssay AID256 (DTP/NCI, 2004)
# Values joined by “and” are separate entries in the source; they are usually repeats but may differ in a detail not shown here. Equal entries are not always repeated. Toxic doses and inconclusive results are not listed.
# Test system: CD2F1 mice, L1210 leukemia ip, survival T/C
# Experiment: NCI In Vivo Anticancer Drug Screen. Data for tumor model L1210 Leukemia (intraperitoneal) in CD2F1 (CDF1) mice
# Settings: higher = longer survival
# In short: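 Compound-dosed mice with transplantable tumor versus matched vehicle controls; endpoint ratio T/C reported.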
# [1] = endpoint: mean survival time, dose: 25.0 mg/kg/injection, schedule: Q01DX009 (ip), vehicle: saline with Tween-80
# [2] = endpoint: mean survival time, dose: 50.0 mg/kg/injection, schedule: Q01DX009 (ip), vehicle: saline with Tween-80
# [3] = endpoint: mean survival time, dose: 100.0 mg/kg/injection, schedule: Q04DX003 (ip), vehicle: saline with Tween-80
# [4] = endpoint: mean survival time, dose: 100.0 mg/kg/injection, schedule: Q04DX002 (ip), vehicle: saline with Tween-80
# [5] = endpoint: mean survival time, dose: 100.0 mg/kg/injection, schedule: Q01DX009 (ip), vehicle: saline with Tween-80
# [6] = endpoint: mean survival time, dose: 200.0 mg/kg/injection, schedule: Q04DX003 (ip), vehicle: saline with Tween-80
# [7] = endpoint: median survival time, dose: 100.0 mg/kg/injection, schedule: Q01DX005 (ip), vehicle: saline
# [8] = endpoint: mean survival time, dose: 100.0 mg/kg/injection, schedule: Q01DX001 (ip), vehicle: saline with Tween-80
# [9] = endpoint: mean survival time, dose: 200.0 mg/kg/injection, schedule: Q01DX001 (ip), vehicle: saline with Tween-80
# [10] = endpoint: mean survival time, dose: 400.0 mg/kg/injection, schedule: Q01DX001 (ip), vehicle: saline with Tween-80
# [11] = endpoint: mean survival time, dose: 400.0 mg/kg/injection, schedule: Q04DX003 (ip), vehicle: saline with Tween-80
# [12] = endpoint: mean survival time, dose: 200.0 mg/kg/injection, schedule: Q01DX009 (ip), vehicle: saline with Tween-80
# [13] = endpoint: mean survival time, dose: 400.0 mg/kg/injection, schedule: Q01DX009 (ip), vehicle: saline with Tween-80
compound,measurement,setting,value
CCc1ccc(C(=O)N/N=C(\C)[C@]2(O)Cc3c(O)c4c(c(O)c3[C@@H](OC3CC(N)C(O)C(C)O3)C2)C(=O)c2c(OC)cccc2C4=O)cc1 (stereo not given in full),T/C,"endpoint: mean survival time, dose: 0.25 mg/kg/injection, schedule: Q01DX009 (ip), vehicle: water",100 % of control
same,T/C,"endpoint: mean survival time, dose: 0.5 mg/kg/injection, schedule: Q01DX009 (ip), vehicle: water",110 % of control
same,T/C,"endpoint: mean survival time, dose: 1.0 mg/kg/injection, schedule: Q01DX009 (ip), vehicle: water",112 % of control
same,T/C,"endpoint: mean survival time, dose: 8.0 mg/kg/injection, schedule: Q01DX009 (ip), vehicle: water",91 % of control
ClC1=C(Cl)C2(Cl)C=CC1(Cl)C2(Cl)Cl,T/C,[1],97 % of control
same,T/C,[2],90 % of control
same,T/C,[3],105 % of control
CC(C)NC(=S)NC1=CCNN1c1ccccc1,T/C,[4],100 % of control
same,T/C,"endpoint: mean survival time, dose: 200.0 mg/kg/injection, schedule: Q04DX002 (ip), vehicle: saline with Tween-80",88 % of control
same,T/C,"endpoint: mean survival time, dose: 400.0 mg/kg/injection, schedule: Q04DX002 (ip), vehicle: saline with Tween-80",88 % of control
Cc1cccc(C(=O)C=C(C(F)(F)F)C(F)(F)F)c1,T/C,"endpoint: mean survival time, dose: 12.5 mg/kg/injection, schedule: Q01DX009 (ip), vehicle: saline with Tween-80",103 % of control
same,T/C,[1],113 % of control
C/C(=C/C#N)c1ccccc1,T/C,[2],101 % of control
same,T/C,[5],97 % of control
same,T/C,[3],100 % of control
same,T/C,[6],100 % of control
CC1(C)CC(=O)C(CSC(=O)c2ccccc2)C(=O)C1,T/C,"endpoint: mean survival time, dose: 3.12 mg/kg/injection, schedule: Q01DX009 (ip), vehicle: Klucel (hydroxypropylcellulose) (HPC)",96 % of control and 100 % of control
same,T/C,"endpoint: mean survival time, dose: 6.25 mg/kg/injection, schedule: Q01DX009 (ip), vehicle: Klucel (hydroxypropylcellulose) (HPC)",101 % of control and 105 % of control
same,T/C,"endpoint: mean survival time, dose: 12.5 mg/kg/injection, schedule: Q01DX009 (ip), vehicle: Klucel (hydroxypropylcellulose) (HPC)",103 % of control and 104 % of control
same,T/C,"endpoint: mean survival time, dose: 25.0 mg/kg/injection, schedule: Q01DX009 (ip), vehicle: Klucel (hydroxypropylcellulose) (HPC)",100 % of control and 105 % of control
same,T/C,"endpoint: mean survival time, dose: 50.0 mg/kg/injection, schedule: Q01DX009 (ip), vehicle: Klucel (hydroxypropylcellulose) (HPC)",102 % of control and 106 % of control
same,T/C,"endpoint: mean survival time, dose: 100.0 mg/kg/injection, schedule: Q01DX009 (ip), vehicle: Klucel (hydroxypropylcellulose) (HPC)",102 % of control
O=c1[nH]c(=O)n2ncc(Br)c2[nH]1,T/C,"endpoint: median survival time, dose: 50.0 mg/kg/injection, schedule: Q01DX005 (ip), vehicle: saline",102 % of control
same,T/C,[7],102 % of control
Cc1ccc(CC(F)F)cc1,T/C,[8],101 % of control
same,T/C,"endpoint: mean survival time, dose: 100.0 mg/kg/injection, schedule: Q04DX003 (ip), vehicle: saline sonified",98 % of control
same,T/C,[9],101 % of control
same,T/C,"endpoint: mean survival time, dose: 200.0 mg/kg/injection, schedule: Q04DX003 (ip), vehicle: saline sonified",96 % of control
same,T/C,[10],103 % of control
same,T/C,"endpoint: mean survival time, dose: 400.0 mg/kg/injection, schedule: Q04DX003 (ip), vehicle: saline sonified",96 % of control
CCCCN(CCCC)CC(O)c1cc(-c2ccc(Cl)cc2)nc2c(OC)ccc(OC)c12 (stereo not given),T/C,[3],98 % of control
same,T/C,[6],102 % of control
same,T/C,[11],98 % of control
O=C(N=C=S)c1ccccc1,T/C,"endpoint: mean survival time, dose: 100.0 mg/kg/injection, schedule: Q04DX003 (ip), vehicle: other",90 % of control
same,T/C,"endpoint: mean survival time, dose: 200.0 mg/kg/injection, schedule: Q04DX003 (ip), vehicle: other",101 % of control
same,T/C,"endpoint: mean survival time, dose: 400.0 mg/kg/injection, schedule: Q04DX003 (ip), vehicle: other",101 % of control
CN=NN(C)C(=O)NC,T/C,"endpoint: median survival time, dose: 6.25 mg/kg/injection, schedule: Q01DX005 (ip), vehicle: saline",110 % of control
same,T/C,"endpoint: median survival time, dose: 12.5 mg/kg/injection, schedule: Q01DX005 (ip), vehicle: saline",120 % of control
same,T/C,"endpoint: median survival time, dose: 60.0 mg/kg/injection, schedule: Q01DX005 (ip), vehicle: saline",186 % of control
same,T/C,[7],204 % of control
Cc1cn(C2CC(O)C(CO)O2)c(=O)nc1NC1CC1 (stereo not given),T/C,"endpoint: median survival time, dose: 12.5 mg/kg/injection, schedule: Q01DX005 (ip), vehicle: water",102 % of control
same,T/C,"endpoint: median survival time, dose: 25.0 mg/kg/injection, schedule: Q01DX005 (ip), vehicle: water",102 % of control
same,T/C,"endpoint: median survival time, dose: 50.0 mg/kg/injection, schedule: Q01DX005 (ip), vehicle: water",104 % of control
same,T/C,"endpoint: median survival time, dose: 100.0 mg/kg/injection, schedule: Q01DX005 (ip), vehicle: water",103 % of control
same,T/C,"endpoint: median survival time, dose: 200.0 mg/kg/injection, schedule: Q01DX005 (ip), vehicle: water",102 % of control
CC(=O)CC(=O)Nc1nccs1,T/C,"endpoint: mean survival time, dose: 25.0 mg/kg/injection, schedule: Q04DX002 (ip), vehicle: saline with Tween-80",110 % of control
same,T/C,"endpoint: mean survival time, dose: 50.0 mg/kg/injection, schedule: Q04DX002 (ip), vehicle: saline with Tween-80",107 % of control
same,T/C,[4],93 % of control
Nc1ncc(C2OC(CO)C(O)C2O)c(=O)[nH]1 (stereo not given),T/C,"endpoint: median survival time, dose: 64.0 mg/kg/injection, schedule: Q01DX005 (ip), vehicle: saline",160 % of control
same,T/C,"endpoint: median survival time, dose: 128.0 mg/kg/injection, schedule: Q01DX005 (ip), vehicle: saline",162 % of control and 243 % of control
same,T/C,"endpoint: median survival time, dose: 256.0 mg/kg/injection, schedule: Q01DX005 (ip), vehicle: saline",94 % of control
COc1ccc([Si](F)(c2ccc(OC)cc2)c2ccc(OC)cc2)cc1,T/C,[5],100 % of control
same,T/C,[3],95 % of control
same,T/C,[12],94 % of control
same,T/C,[6],93 % of control
same,T/C,[13],93 % of control
same,T/C,[11],90 % of control
O=C1NC(=O)C(Br)C(=O)N1,T/C,"endpoint: mean survival time, dose: 75.0 mg/kg/injection, schedule: Q01DX001 (ip), vehicle: saline",102 % of control
same,T/C,"endpoint: mean survival time, dose: 150.0 mg/kg/injection, schedule: Q01DX001 (ip), vehicle: saline",100 % of control
COc1ccc(COC(=O)Nc2cccc3ccccc23)cc1,T/C,"endpoint: mean survival time, dose: 75.0 mg/kg/injection, schedule: Q04DX002 (ip), vehicle: saline with Tween-80",104 % of control
same,T/C,"endpoint: mean survival time, dose: 150.0 mg/kg/injection, schedule: Q04DX002 (ip), vehicle: saline with Tween-80",104 % of control
same,T/C,"endpoint: mean survival time, dose: 300.0 mg/kg/injection, schedule: Q04DX002 (ip), vehicle: saline with Tween-80",100 % of control
O=C1c2ccccc2-c2cc(Br)c(NC(Cl)Cl)cc21,T/C,[8],104 % of control
same,T/C,[9],106 % of control
same,T/C,[10],103 % of control
Cc1c2ccccc2c(CSCCC(N)C(=O)O)c2ccccc12 (stereo not given),T/C,[3],96 % of control
same,T/C,[6],93 % of control
same,T/C,[11],90 % of control
NC1CCCCC1.[O]=[Cr](=[O])([OH])[OH],T/C,"endpoint: mean survival time, dose: 6.25 mg/kg/injection, schedule: Q04DX003 (ip), vehicle: saline",103 % of control
same,T/C,"endpoint: mean survival time, dose: 12.5 mg/kg/injection, schedule: Q04DX003 (ip), vehicle: saline",98 % of control
same,T/C,"endpoint: mean survival time, dose: 25.0 mg/kg/injection, schedule: Q04DX003 (ip), vehicle: saline",110 % of control
N#CCc1[nH]nc2ncnc(N)c12,T/C,"endpoint: mean survival time, dose: 12.5 mg/kg/injection, schedule: Q01DX005 (ip), vehicle: water",100 % of control
same,T/C,"endpoint: mean survival time, dose: 25.0 mg/kg/injection, schedule: Q01DX005 (ip), vehicle: water",100 % of control
same,T/C,"endpoint: mean survival time, dose: 50.0 mg/kg/injection, schedule: Q01DX005 (ip), vehicle: water",105 % of control
same,T/C,"endpoint: mean survival time, dose: 100.0 mg/kg/injection, schedule: Q01DX005 (ip), vehicle: water",105 % of control
CC1=C/C(=N/Nc2ccc([N+](=O)[O-])cc2[N+](=O)[O-])CC(C)(C)C1,T/C,[8],92 % of control
same,T/C,[9],90 % of control
same,T/C,[10],95 % of control
O=C(NO)c1cccc(O)c1O,T/C,"endpoint: median survival time, dose: 200.0 mg/kg/injection, schedule: Q01DX009 (ip), vehicle: distilled water + Tween-80",162 % of control
same,T/C,"endpoint: median survival time, dose: 300.0 mg/kg/injection, schedule: Q01DX009 (ip), vehicle: distilled water + Tween-80",170 % of control
same,T/C,"endpoint: median survival time, dose: 450.0 mg/kg/injection, schedule: Q01DX009 (ip), vehicle: distilled water + Tween-80",104 % of control
Cc1ccc(O)c2ncccc12,T/C,[5],114 % of control
same,T/C,[12],97 % of control
same,T/C,[13],103 % of control
COc1ccc(CNCCO)cc1OC,T/C,"endpoint: median survival time, dose: 25.0 mg/kg/injection, schedule: Q04DX003 (ip), vehicle: saline",90 % of control
same,T/C,"endpoint: median survival time, dose: 50.0 mg/kg/injection, schedule: Q04DX003 (ip), vehicle: saline",90 % of control
same,T/C,"endpoint: median survival time, dose: 100.0 mg/kg/injection, schedule: Q04DX003 (ip), vehicle: saline",90 % of control
same,T/C,"endpoint: median survival time, dose: 200.0 mg/kg/injection, schedule: Q04DX003 (ip), vehicle: saline",100 % of control
O=c1[nH]cc(S(=O)(=O)Nc2ccccc2)c(=O)[nH]1,T/C,[8],88 % of control
same,T/C,[10],96 % of control
